Experiments:
[1] = target: T1, human recombinant adrenergic α2C receptor (Homo sapiens, UniProt P18825); assay: Adrenergic α2C radioligand binding ([3H]MK-912); conditions: compound at 0.1 μM; read-out: Percentage inhibition of ligand binding, Adrenergic (0.1 μM) α2C
T1 construct: expressed in transfected cells; host or cells: insect Sf9 cells
T1 sequence (P18825 1-462): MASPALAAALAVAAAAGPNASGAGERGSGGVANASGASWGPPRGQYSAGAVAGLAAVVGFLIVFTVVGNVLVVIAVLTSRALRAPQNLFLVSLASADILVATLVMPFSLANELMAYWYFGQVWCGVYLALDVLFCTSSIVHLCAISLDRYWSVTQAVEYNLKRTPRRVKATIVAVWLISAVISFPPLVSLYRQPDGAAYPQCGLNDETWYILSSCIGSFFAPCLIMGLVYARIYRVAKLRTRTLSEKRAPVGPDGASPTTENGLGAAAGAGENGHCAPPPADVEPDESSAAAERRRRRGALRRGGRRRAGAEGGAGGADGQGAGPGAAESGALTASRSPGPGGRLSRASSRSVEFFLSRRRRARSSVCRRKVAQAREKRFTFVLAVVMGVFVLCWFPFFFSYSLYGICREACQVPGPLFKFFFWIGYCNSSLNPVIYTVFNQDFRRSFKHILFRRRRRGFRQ
Procedure: To evaluate in radioligand binding assays the activity of compounds of the invention, human recombinant adrenergic α2C receptor expressed in insect Sf9 cells (Uhlen, S. et al, J. Pharmacol. Exp. Ther. 271:1558, 1994) in a modified Tris-HCl buffer (50 mM Tris-HCl, pH 7.4, 12.5 mM MgCl2, 2 mM EDTA) was used. Compounds of the invention were incubated with 1 nM [^3H]MK-912 for 60 min at 25° C. Non-specific binding was estimated in the presence of 10 μM WB-4101. Receptor proteins were filtered and washed, the filters were then counted to determine [^3H]MK-912 specifically bound. Compounds were screened at 1 μM or lower, using 1% DMSO as vehicle. Biochemical assay results are presented as the percent inhibition of specific binding in Table 3.

[2] = target: T2, human recombinant dopamine D2L receptor (Homo sapiens, UniProt P14416); assay: Dopamine D2L radioligand binding ([3H]Spiperone); conditions: compound at 1 μM; read-out: Percentage inhibition of ligand binding, Dopamine (1 μM) D2L
T2 construct: expressed in transfected cells; host or cells: CHO
Procedure: To evaluate in radioligand binding assays the activity of compounds of the invention, human recombinant dopamine D2L receptor expressed in Chinese hamster ovary (CHO) cells (Grandy, D. et al, Proc. Natl. Acad. Sci. USA. 86:9762, 1989; Hayes, G. et al, Mol. Endocrinol. 6:920, 1992) in a modified Tris-HCl buffer (50 mM Tris-HCl, pH 7.4, 1.4 mM Ascorbic Acid, 0.001% BSA, 150 mM NaCl) was used. Compounds of the invention were incubated with 0.16 nM [^3H]Spiperonefor 120 min at 25° C. Non-specific binding was estimated in the presence of 10 μM Haloperidol. Receptor proteins were filtered and washed, the filters were then counted to determine [^3H]Spiperone specifically bound. Compounds were screened at 1 μM or lower, using 1% DMSO as vehicle. Biochemical assay results are presented as the percent inhibition of specific binding in Table 3.

[3] = target: T3, human recombinant serotonin (5-Hydroxytryptamine) 5-HT7 receptor (Homo sapiens, UniProt P34969); assay: Serotonin 5-HT7 radioligand binding ([3H]LSD); conditions: compound at 0.1 μM; read-out: Percentage inhibition of ligand binding, Serotonin (0.1 μM) 5-HT7
T3 construct: expressed in transfected cells; host or cells: CHO
Procedure: To evaluate in radioligand binding assays the activity of compounds of the invention, human recombinant serotonin (5-Hydroxytryptamine) 5-HT7 receptor expressed in Chinese hamster ovary (CHO) cells (Roth, B. et al, J. Pharmacol. Exp. Ther. 268:1403, 1994; Shen, Y. et al, J. Biol. Chem. 268:18200, 1993) in a modified Tris-HCl buffer (50 mM Tris-HCl, pH 7.4, 10 mM MgCl2, 0.5 mM EDTA) was used. Compounds of invention were incubated with 5.5 nM [^3H] Lysergic acid diethylamide (LSD) for 2 h at 25° C. Non-specific binding was estimated in the presence of 10 μM Serotonin (5-HT). Receptor proteins were filtered and washed, the filters were then counted to determine [^3H]LSD specifically bound. Compounds were screened at 1 μM or lower, using 1% DMSO as vehicle. Biochemical assay results are presented as the percent inhibition of specific binding in Table 4.

[4] = target: T4, rat adrenergic α1A receptor (Rattus norvegicus, UniProt P43140); assay: Adrenergic α1A radioligand binding ([3H]Prazosin); conditions: compound at 0.1 μM; read-out: Percentage inhibition of ligand binding, Adrenergic (0.1 μM) α1A
T4 construct: rat adrenergic α1A receptor obtained from Wistar Rat submaxillary glands; from tissue; host or cells: Wistar rat submaxillary glands
T4 sequence (P43140 1-466): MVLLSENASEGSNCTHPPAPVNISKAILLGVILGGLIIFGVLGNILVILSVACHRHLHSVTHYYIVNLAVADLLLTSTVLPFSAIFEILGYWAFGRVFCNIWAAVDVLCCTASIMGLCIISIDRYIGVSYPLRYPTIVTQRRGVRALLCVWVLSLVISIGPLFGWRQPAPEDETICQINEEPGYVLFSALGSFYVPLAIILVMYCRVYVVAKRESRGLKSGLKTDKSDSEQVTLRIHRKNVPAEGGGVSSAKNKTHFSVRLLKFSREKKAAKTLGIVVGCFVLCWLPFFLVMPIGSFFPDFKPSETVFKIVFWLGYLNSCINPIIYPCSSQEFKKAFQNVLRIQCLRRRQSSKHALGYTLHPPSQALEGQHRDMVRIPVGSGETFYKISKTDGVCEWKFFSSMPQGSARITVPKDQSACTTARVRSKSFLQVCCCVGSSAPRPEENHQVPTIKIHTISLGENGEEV
Procedure: To evaluate in radioligand binding assays the activity of compounds of the invention, rat adrenergic α1A receptor obtained from Wistar Rat submaxillary glands (Michel, A. et al, Br. J. Pharmacol. 98:883, 1989) in a modified Tris-HCl buffer (50 mM Tris-HCl buffer, pH 7.4, 0.5 mM EDTA) was used. Compounds of the invention were incubated with 0.25 nM [^3H]Prazosin for 60 min at 25° C. Non-specific binding was estimated in the presence of 10 μM phentolamine. Receptor proteins were filtered and washed, the filters were then counted to determine [^3H]Prazosin specifically bound. Compounds of the invention were screened at 1 μM or lower, using 1% DMSO as vehicle. Biochemical assay results are presented as the percent inhibition of specific binding in Table 3.

T3 sequence (P34969 whole entry): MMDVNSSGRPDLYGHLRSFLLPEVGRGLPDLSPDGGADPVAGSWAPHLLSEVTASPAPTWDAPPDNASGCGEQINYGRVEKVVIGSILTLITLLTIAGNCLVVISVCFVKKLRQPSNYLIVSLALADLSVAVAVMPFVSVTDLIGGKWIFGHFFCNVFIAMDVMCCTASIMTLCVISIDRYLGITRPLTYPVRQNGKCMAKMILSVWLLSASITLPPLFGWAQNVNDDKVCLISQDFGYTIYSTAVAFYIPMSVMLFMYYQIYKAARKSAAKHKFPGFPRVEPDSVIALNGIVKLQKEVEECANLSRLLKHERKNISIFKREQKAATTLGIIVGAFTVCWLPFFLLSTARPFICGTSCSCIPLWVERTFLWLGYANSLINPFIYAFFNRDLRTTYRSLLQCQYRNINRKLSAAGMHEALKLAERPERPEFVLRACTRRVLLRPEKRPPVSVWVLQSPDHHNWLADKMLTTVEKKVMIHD
T2 sequence (P14416 whole entry): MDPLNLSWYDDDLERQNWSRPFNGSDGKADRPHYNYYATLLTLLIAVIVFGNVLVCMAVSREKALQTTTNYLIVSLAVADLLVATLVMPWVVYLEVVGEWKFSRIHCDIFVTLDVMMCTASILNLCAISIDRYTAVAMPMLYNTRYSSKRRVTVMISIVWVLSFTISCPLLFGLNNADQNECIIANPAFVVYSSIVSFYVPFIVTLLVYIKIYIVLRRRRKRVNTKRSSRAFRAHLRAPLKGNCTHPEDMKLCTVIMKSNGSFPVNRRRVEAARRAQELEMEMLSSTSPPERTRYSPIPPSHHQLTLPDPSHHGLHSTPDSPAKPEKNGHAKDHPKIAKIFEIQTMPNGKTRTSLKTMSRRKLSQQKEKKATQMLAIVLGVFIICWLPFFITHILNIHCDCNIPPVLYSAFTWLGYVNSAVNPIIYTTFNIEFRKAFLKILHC

| Compound | inhibition at 0.1 µM [1] [%] | inhibition at 1 µM [2] [%] | inhibition at 0.1 µM [3] [%] | inhibition at 0.1 µM [4] [%] |
| --- | --- | --- | --- | --- |
| Cc1cc(-c2ccc(F)cc2)c2c(c1)c1c(n2C)CCN(C)C1 [Compound 7] | 8 | 5 | 12 | 1 |
| Cc1cc(C#Cc2cccs2)c2[nH]c3c(c2c1)CN(C)CC3 [Compound 8] | 7 | -1 | 6 | -5 |
| Cc1cc(-c2ccncc2)c2c(c1)c1c(n2C)CCN(C)C1 [Compound 9] | 1 | 7 | 26 | 4 |
| C#Cc1cc(C)cc2c3c(n(C)c12)CCN(C)C3 [Compound 10, 6-Ethynyl-2,3,4,5-tetrahydro-2,5,8-trimethyl-1H-pyrido[4,3-b]indole] | 36 | 70 | 14 | 6 |
| C/C(=C\c1cc(C)cc2c3c(n(C)c12)CCN(C)C3)c1ccncc1 [Compound 11] | 12 | 28 | -17 | -14 |
| Cc1cc(C#Cc2ccc(C)nc2)c2c(c1)c1c(n2C)CCN(C)C1 [Compound 12, 2,3,4,5-tetrahydro-2,5,8-trimethyl-6-(2-(6-methylpyridin-3-yl)ethynyl)-1H-pyrido[4,3-b]indole] | 3 | 14 | 5 | -12 |
| Cc1cc(CCc2ccc(C)nc2)c2c(c1)c1c(n2C)CCN(C)C1 [Compound 13] | 2 | 15 | 16 | 2 |
| Cc1cc(/C=C/c2ccc(C)nc2)c2c(c1)c1c(n2C)CCN(C)C1 [Compound 14] | 1 | 14 | 13 | -16 |
| C/C(=C\c1cc(C)cc2c3c(n(C)c12)CCN(C)C3)c1ccc(C)nc1 [Compound 15] | -14 | 3 | 36 | 3 |
| Cc1cc(C#Cc2nccs2)c2[nH]c3c(c2c1)CN(C)CC3 [Compound 16] | 5 | -1 | 35 | -1 |
| Cc1cc(C#Cc2ccncc2)c2c(c1)c1c(n2C)CCN(C)C1 [Compound 17] | 3 | 1 | 23 | -2 |
| Cc1ccc(C#Cc2cc(Cl)cc3c4c(n(C)c23)CCN(C)C4)cn1 [Compound 18] | 0 | 7 | 8 | 14 |
